Among the data in patent publication US20250295690A1, “ORAL FORMULATION BASED ON A PRE-ESTABLISHED ASSOCIATION OF SULODEXIDE AND FLAVONOIDS FOR THE TREATMENT OF CHRONIC VENOUS INSUFFICIENCY AND PREVENTION OF COMPLICATIONS THEREOF” (priority 2021, published 2025) are increase in permeability values, retold here.

The test system of experiment [1] is human micro-vascular endothelial cells (HMVEC). The experiment in a line: In vitro vascular permeability assay on a VEGF-treated HMVEC monolayer (FITC-dextran). The class given is cell-based. To be noted: HMVEC line, 50 ng/ml, 8 hours. How it is done: (§1) The direct effect on the vasal permeability of three compositions comprising Sulodexide+flavonoids was evaluated in vitro:
(§2) All tested compositions (i)-(iii) comprise a concentration of sulodexide equal to 0.25% and a concentration of diosmin, hesperidin or troxerutin, respectively, equal to 4.5% by weight with respect to the total weight of the composition.
(§3) The action of the compositions (i)-(iii) was compared with the action of the active principles Diosmin, Hesperidin, Troxerutin, 8% by weight, and glucosaminoglycan Sulodexide, 0.5% by weight, administered singularly.
(§4) The direct effect on the vasal permeability was evaluated by using endothelial cellular cultures miming the continuous mono-layer of the endothelium of the human vessels. Two cellular models were used: the human micro-vascular endothelial cells (HMVEC) to simulate the vessels of the microcirculation, and the human umbilical vein endothelial cells (HUVEC) to study the vasal endothelium. The cells of the lines HMVEC and HUVEC (3×10^5) were incubated for 72 hours at 37° C. on supports of semi-permeable membrane with pores having 1-μm diameter so as to form a continuous mono-layer wholly impermeable to the substance used as control, the fluorescein isothiocyanate (FITC) dextran. The vasal permeability was evaluated with the kit “The Millipore® In Vitro Vascular Permeability Assay”. […]

Experiment [2] deals with human umbilical vein endothelial cells (HUVEC). The experiment in a line: In vitro vascular permeability assay on a VEGF-treated HUVEC monolayer (FITC-dextran). The class given is cell-based. Particulars: 50 ng/ml, 8 hours. As to the method:
as §1, §2, §3, §4

As for VEGF, the increase in permeability in experiment [1] is listed as 36%; in experiment [2] it was 42%.
